IC50 data for 23 molecules are collected here from patent US20260334439A1, “BCAT2 INHIBITORS” (Agios Pharmaceuticals, Inc., priority 2023, published 2026).

Each structure is given as a SMILES string. Bounds are passed on as bounds.

The assay has as its target T1, BCAT2 (Homo sapiens, UniProt O15382).
T1 sequence (O15382 28-392): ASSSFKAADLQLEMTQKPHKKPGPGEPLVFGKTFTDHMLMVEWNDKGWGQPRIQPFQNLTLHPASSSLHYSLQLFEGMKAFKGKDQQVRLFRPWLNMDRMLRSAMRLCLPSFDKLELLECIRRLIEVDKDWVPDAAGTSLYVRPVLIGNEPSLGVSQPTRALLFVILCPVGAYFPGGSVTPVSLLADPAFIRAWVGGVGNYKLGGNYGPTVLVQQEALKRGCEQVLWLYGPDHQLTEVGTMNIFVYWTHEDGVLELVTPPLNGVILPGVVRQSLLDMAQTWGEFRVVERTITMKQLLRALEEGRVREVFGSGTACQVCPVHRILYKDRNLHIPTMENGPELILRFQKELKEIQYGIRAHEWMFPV
The assay is described as follows: BCAT2 in vitro enzyme inhibition assay (hBCAT2, glutamate dehydrogenase/diaphorase/resazurin coupled fluorescence read). The class given is biochemical. The note with it: hBCAT2, 1 h preincubation at 25° C., one hour reaction; average where tested multiple times. The protocol:
• 2×Buffer: 200 mM Tris pH 8.0, 300 mM NaCl, 0.1% BSA • 1.67×hBCAT2 Enzyme Mix: 0.33 μg/mL hBCAT2, 1× Buffer • 2.5×Substrate Mix: 460 µM L-leucine, 420 µM α-KetoGlutarate, 10 U/mL glutamate dehydrogenase, 10 mM NAD, […] diaphorase, […] Resazurin
BCAT2 enzyme stock solution was diluted to prepare a 1.67×hBCAT2 Enzyme Mix. 1 μL of test compound was first added to the reaction wells followed by 30 μL of 1.67×hBCAT2 Enzyme Mix and incubated at room temperature (25° C.) for one hour. Meanwhile the Substrate Mix was prepared. The reaction was initiated by the addition of 20 μL of the 2.5×Substrate Mix, bringing the final reaction mix of all components to 1×. Reactions were quenched after one hour by the addition of 25 μL of 6% SDS and reaction progress was measured via fluorescence read (Ex 540/Em 590).
Test compounds were prepared at 50×final concentration in DMSO, 1 to 3 dilutions were made for 10 points. The compounds were added to the assay as a 1 to 50 dilution (1 μL in 50 μL) to yield a top assay final concentration of 100 μM, decreasing 3-fold for 10 points. Each compound dilution series test also included an assay max (1 μL DMSO Added in lieu of compound, Full Reaction Components Included) and Min (1 μL DMSO Added in lieu of compound, 30 μl of 1.67×hBCAT2 Enzyme Mix replated by 30 μL of 1×Buffer). All tests were performed in technical duplicate.
Where a compound was tested multiple times, the average value of the tests is reported.

As for `CN1C[C@@H](NC(=O)c2cc(F)ccn2)C[C@@H](n2c(-c3ccccc3OC(F)F)nc3cnc(-c4nc[nH]n4)cc32)C1` [compound 140], the IC50 was in the range of 0.5 to 1 µM.

Regarding `CN1C[C@@H](NC(=O)c2cc(Cl)ccn2)C[C@@H](n2c(-c3ncccc3F)nc3cnc(-c4nc[nH]n4)cc32)C1` [Example 131, 4-chloro-N-((3S,5R)-5-(2-(3-fluoropyridin-2-yl)-6-(1H-1,2,4-triazol-3-yl)-1H-imidazo[4,5-c]pyridin-1-yl)-1-methylpiperidin-3-yl)picolinamide], the IC50 was above 1 µM.

Take `CO[C@H]1C[C@H](NC(=O)c2cc(F)ccn2)C[C@H](n2c(-c3ccccc3OCCO)nc3ccc(-c4ncccn4)cc32)C1` [Example 224, 4-fluoro-N-((1R,3S,5S)-3-(2-(2-(2-hydroxyethoxy)phenyl)-6-(pyrimidin-2-yl)-1H-benzo[d]imidazol-1-yl)-5-methoxycyclo-hexyl)picolinamide]: the IC50 was below 0.1 µM.

As to `O=C(N[C@H]1CCC[C@@H](n2c(-c3ccccc3F)nc3cnc(-c4nc[nH]n4)cc32)C1)c1cc(Cl)cnn1` [Example 17, 5-chloro-N-((1S,3R)-3-(2-(2-fluorophenyl)-6-(1H-1,2,4-triazol-3-yl)-1H-imidazo[4,5-c]pyridin-1-yl)cyclohexyl)pyridazine-3-carboxamide], the IC50 was below 0.1 µM.

As to `CC(C)OCc1nc2cnc(-c3nc[nH]n3)cc2n1[C@@H]1CCC[C@H](NC(=O)c2cc(Cl)ccn2)C1` [Example 20, 4-chloro-N-((1S,3R)-3-(2-(isopropoxymethyl)-6-(1H-1,2,4-triazol-3-yl)-1H-imidazo[4,5-c]pyridin-1-yl)cyclohexyl)picolinamide], the IC50 is above 1 µM.

In turn, `CN1CC(NC(=O)c2cc(Cl)ccc2F)CC(n2c(-c3ncccc3F)nc3cnc(-c4nc[nH]n4)cc32)C1` (centres unmarked) [Example 147, 5-chloro-2-fluoro-N-(5-(2-(3-fluoropyridin-2-yl)-6-(1H-1,2,4-triazol-3-yl)-1H-imidazo[4,5-c]pyridin-1-yl)-1-methylpiperidin-3-yl)benzamide] showed an IC50 of 0.1 to 0.5 µM.

`COc1ccc(Cl)cc1C(=O)N[C@H]1CCCC[C@@H](n2c(-c3c(F)cccc3OC)nc3cnc(-c4nc[nH]n4)cc32)[C@@H]1O` [Example 110, 5-chloro-N-((1S,2R,3R)-3-(2-(2-fluoro-6-methoxyphenyl)-6-(1H-1,2,4-triazol-3-yl)-1H-imidazo[4,5-c]pyridin-1-yl)-2-hydroxycycloheptyl)-2-methoxybenzamide] returned an IC50 below 0.1 µM.

The molecule `CC(=O)N1C[C@@H](NC(=O)c2cc(F)ccn2)C[C@@H](n2c(-c3ccccc3F)nc3cnc(-c4nc(C)co4)cc32)C1` [Example 166, N-((3S,5R)-1-acetyl-5-(2-(2-fluorophenyl)-6-(4-methyloxazol-2-yl)-1H-imidazo[4,5-c]pyridin-1-yl)piperidin-3-yl)-4-fluoropicolinamide] displayed an IC50 below 0.1 µM.

For `O=C(NC1CCCCC(n2c(-c3ccccc3F)nc3cnc(-c4nc(C(F)(F)F)co4)cc32)C1O)c1cc(F)ccc1F` (centres unmarked) [Example 126, 2,5-difluoro-N-(3-(2-(2-fluorophenyl)-6-(4-(trifluoromethyl)oxazol-2-yl)-1H-imidazo[4,5-c]pyridin-1-yl)-2-hydroxycycloheptyl)benzamide], the IC50 was below 0.1 µM.

`O=C(N[C@H]1CCC[C@@H](n2c(-c3ccccc3F)nc3ccc(-c4nc[nH]n4)cc32)[C@@H]1O)c1cc(F)ccc1F` [Example 225, 2,5-difluoro-N-((1S,2R,3R)-3-(2-(2-fluorophenyl)-6-(1H-1,2,4-triazol-3-yl)-1H-benzo[d]imid-azol-1-yl)-2-hydroxycyclohex-yl)benzamide]: the IC50 was below 0.1 µM.

For `CC(C)Cc1nc2cnc(-c3nc[nH]n3)cc2n1[C@@H]1CCC[C@H](NC(=O)c2cc(Cl)ccc2OC2CC2)C1` [Example 79, 5-chloro-2-cyclopropoxy-N-((1S,3R)-3-(2-isobutyl-6-(1H-1,2,4-triazol-3-yl)-1H-imidazo[4,5-c]pyridin-1-yl)cyclohexyl)benzamide], the concentration for half-maximal inhibition (IC50) was below 0.1 µM.

`CN1C[C@@H](NC(=O)c2cc(F)ccc2F)C[C@@H](n2c(-c3ccccc3F)nc3cnc(-c4nc[nH]n4)cc32)C1` [Example 152, 2,5-difluoro-N-((3S,5R)-5-(2-(2-fluorophenyl)-6-(1H-1,2,4-triazol-3-yl)-1H-imidazo[4,5-c]pyridin-1-yl)-1-methylpiperidin-3-yl)benzamide] came in with an IC50 of 0.1 to 0.5 µM.

In turn, `O=C(N[C@H]1C[C@@H](n2c(-c3ccccc3OCCO)nc3ccc(-c4nc[nH]n4)cc32)CC(F)(F)C1)c1cc(F)ccn1` [Example 232, N-((1S,5R)-3,3-difluoro-5-(2-(2-(2-hydroxyethoxy)phenyl)-6-(1H-1,2,4-triazol-3-yl)-1H-benzo[d]imidazol-1-yl)cyclohexyl)-4-fluoropicolinamide] came in with an IC50 of 0.1 to 0.5 µM.

As to `COc1ccc(Cl)cc1C(=O)N[C@H]1CCC[C@@H](n2c(-c3ccccc3C#N)nc3cnc(-c4nc[nH]n4)cc32)[C@@H]1O` [Example 108, 5-chloro-N-((1S,2R,3R)-3-(2-(2-cyanophenyl)-6-(1H-1,2,4-triazol-3-yl)-1H-imidazo[4,5-c]pyridin-1-yl)-2-hydroxycyclohexyl)-2-methoxybenzamide], the IC50 is below 0.1 µM.

`CO[C@H]1C[C@H](NC(=O)c2cc(F)ccn2)C[C@H](n2c(-c3ccccc3OCCO)nc3ccc(-c4ncco4)cc32)C1` [Example 223, 4-fluoro-N-((1R,3S,5S)-3-(2-(2-(2-hydroxyethoxy)phenyl)-6-(oxazol-2-yl)-1H-benzo[d]imid-azol-1-yl)-5-methoxycyclohex-yl)picolinamide] returned an IC50 of 0.1 to 0.5 µM.

In turn, `CN1C[C@@H](N2Cc3ccc(F)cc3C2=O)C[C@@H](n2c(-c3ccccc3OCCO)nc3cnc(-c4nc[nH]n4)cc32)C1` [Example 198, 6-fluoro-2-((3S,5R)-5-(2-(2-(2-hydroxyethoxy)phenyl)-6-(1H-1,2,4-triazol-3-yl)-1H-imidazo[4,5-c]pyridin-1-yl)-1-methylpiperidin-3-yl)isoindolin-1-one] yielded an IC50 of 0.1 to 0.5 µM.

Turning to `CN1C[C@@H](NC(=O)c2cc(Cl)ccn2)C[C@@H](n2c(-c3ccccc3OCCO)nc3ccc(-c4ncccn4)cc32)C1` [Example 235, 4-chloro-N-((3S,5R)-5-(2-(2-(2-hydroxyethoxy)phenyl)-6-(pyr-imidin-2-yl)-1H-benzo[d]imid-azol-1-yl)-1-methylpiperidin-3-yl)picolinamide], the 50% inhibitory concentration (IC50) is above 1 µM.

Molecule `O=C(N[C@H]1CCC[C@@H](n2c(-c3ccccc3OCCO)nc3ccc(-c4nc[nH]n4)cc32)C1)c1cc(Cl)ccc1F` [Example 229, 5-chloro-2-fluoro-N-((1S,3R)-3-(2-(2-(2-hydroxyethoxy)phenyl)-6-(1H-1,2,4-triazol-3-yl)-1H-benzo[d]imidazol-1-yl)cyclohex-yl)benzamide] displayed an IC50 below 0.1 µM.

Consider `COc1ccc(Cl)cc1C(=O)N[C@@H]1C[C@@H](O)C[C@H](n2c(CC(C)C)nc3cnc(-c4ncccn4)cc32)C1` [Example 112, 5-chloro-N-((1S,3R,5R)-3-hydroxy-5-(2-isobutyl-6-(pyrimidin-2-yl)-1H-imidazo[4,5-c]pyridin-1-yl)cyclohexyl)-2-methoxybenzamide], for which the IC50 is above 1 µM.

In turn, `CN1C[C@@H](NC(=O)c2cc(F)ccc2F)C[C@@H](n2c(-c3ccccc3OCCO)nc3cnc(-c4ncco4)cc32)C1` [Example 159, 2,5-difluoro-N-((3S,5R)-5-(2-(2-(2-hydroxyethoxy)phenyl)-6-(oxazol-2-yl)-1H-imidazo[4,5-c]pyridin-1-yl)-1-methylpiperidin-3-yl)benzamide] yielded a half-maximal inhibitory concentration (IC50) above 1 µM.

In turn, `CN1C[C@H](NC(=O)c2cc(F)ccc2F)C[C@H](n2c(-c3ccccc3OCCO)nc3cnc(-n4nccn4)cc32)C1` [Example 155, 2,5-difluoro-N-((3R,5S)-5-(2-(2-(2-hydroxyethoxy)phenyl)-6-(2H-1,2,3-triazol-2-yl)-1H-imidazo[4,5-c]pyridin-1-yl)-1-methylpiperidin-3-yl)benzamide] had an IC50 below 0.1 µM.

Consider `COc1ccc(F)cc1C(=O)N[C@H]1CCC[C@@H](n2c(-c3ccccc3F)nc3cnc(-c4nc[nH]n4)cc32)C1` [Example 8, 5-fluoro-N-((1S,3R)-3-(2-(2-fluorophenyl)-6-(1H-1,2,4-triazol-3-yl)-1H-imidazo[4,5-c]pyridin-1-yl)cyclohexyl)-2-methoxybenzamide], for which the IC50 was below 0.1 µM.

Regarding `O=C(N[C@H]1CCC[C@@H](n2c(-c3ncccc3F)nc3cnc(-c4nc[nH]n4)cc32)C1)c1cc(Cl)ccc1OC(F)F` [compound 47], the IC50 was below 0.1 µM.
